Source: EP2491043B1, “2,7-SUBSTITUTED THIENO[3,2-D]PYRIMIDINE COMPOUNDS AS PROTEIN KINASE INHIBITORS” (Korea Institute of Science and Technology, priority 2009, dated 2011)

What was measured:
[1] = tested on: prostate cancer PC-3, breast cancer BT-474, colon LoVo, lung cancer NCI-H460, glioblastoma U-87 MG and pancreatic cancer BxPC-3 cells; settings: 25-100 mg/kg p.o., human tumor xenografts; cited from earlier work
FAK = biological target: T1, FAK (Homo sapiens, UniProt Q05397); assay: Measurement of FAK kinase activity (ULight-LANCE assay); type: biochemical; settings: 10 µM ATP, 3 nM FAK, TR-FRET; read-out: FAK inhibition activity (IC50)
T1 construct: purchased Cell Signaling 7796
T1 sequence (Q05397 whole entry): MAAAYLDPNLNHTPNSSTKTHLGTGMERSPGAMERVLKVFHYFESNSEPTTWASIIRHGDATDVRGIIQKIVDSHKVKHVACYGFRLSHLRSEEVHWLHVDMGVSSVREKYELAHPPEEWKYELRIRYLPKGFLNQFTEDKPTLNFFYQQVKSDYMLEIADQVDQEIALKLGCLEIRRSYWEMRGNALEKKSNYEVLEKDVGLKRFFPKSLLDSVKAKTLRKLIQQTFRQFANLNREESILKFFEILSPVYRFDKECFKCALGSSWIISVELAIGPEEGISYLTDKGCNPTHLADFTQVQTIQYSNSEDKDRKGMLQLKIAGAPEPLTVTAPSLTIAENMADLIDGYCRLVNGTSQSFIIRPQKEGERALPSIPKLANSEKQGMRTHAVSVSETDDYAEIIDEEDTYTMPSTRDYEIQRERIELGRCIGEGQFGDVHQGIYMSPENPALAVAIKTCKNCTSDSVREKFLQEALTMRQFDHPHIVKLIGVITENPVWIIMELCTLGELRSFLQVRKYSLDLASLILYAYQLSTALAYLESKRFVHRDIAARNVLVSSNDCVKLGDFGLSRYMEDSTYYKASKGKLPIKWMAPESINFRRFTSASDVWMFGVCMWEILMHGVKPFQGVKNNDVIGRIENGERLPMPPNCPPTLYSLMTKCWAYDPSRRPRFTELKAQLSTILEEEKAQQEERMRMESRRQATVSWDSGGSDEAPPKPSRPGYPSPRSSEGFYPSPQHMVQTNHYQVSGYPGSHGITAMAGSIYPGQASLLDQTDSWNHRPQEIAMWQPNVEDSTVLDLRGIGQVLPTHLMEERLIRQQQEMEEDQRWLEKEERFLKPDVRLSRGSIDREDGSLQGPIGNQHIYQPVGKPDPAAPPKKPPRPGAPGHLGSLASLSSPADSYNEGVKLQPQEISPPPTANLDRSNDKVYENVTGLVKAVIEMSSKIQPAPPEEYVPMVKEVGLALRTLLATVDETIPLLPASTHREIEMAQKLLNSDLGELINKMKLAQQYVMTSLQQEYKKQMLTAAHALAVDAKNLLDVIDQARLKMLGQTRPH
Description: Full sequence FAK was purchased from Cell Signaling (Catalog No.: 7796). ULight-poly GT (PerkinElmer #TRF0100-D), Eu-anti-phospho-Tyr (PT66) ((PerkinElmer #AD0068) and Lance detection buffer (PerkinElmer #CR-97-100) were purchased from PerkinElmer. The kinase solution (50 mM Tris-HCl pH 7.5, 10 mM MgCl2, 1 mM EGTA, 2 mM DTT, 0.01% Tween-20) was adjusted to a final concentration of 3 nM by adding FAK diluted to 6 nM (2X) in white 384 OptiPlate, and added with an amount of 5 µL. 4X ULight-poly GT was adjusted to a final concentration of 100 nM. ATP (Sigma #A2383) was adjusted to a final concentration of 10 µM and in 2.5 µL aliquots. The test compound was sequentially diluted at 12 concentrations and treated with an amount of 0.5 µL. After shaking well and allowing to react at room temperature for 60 minutes, 5 µL of ethylenediaminetetraacetic acid (EDTA, final concentration 40 mM) diluted in Lance detection buffer (Lance detection buffer) was added and the mixture was left at room temperature for 5 minutes to stop the reaction. After adding 4X Eu-anti-phospho-Tyr (PT66) phosphorylated antibody diluted to a final concentration of 2 nM in detection buffer with an amount of 5 µL, and reaction was performed at room temperature for 60 minutes. After adjusting to detect time-resolved fluorescence energy transfer (TR-FRET) at excitation wavelength 320 nm and emission wavelength 665 nm, signals were detected using EnVision Multilabel Reader.

[2] = tested on: HT-29 human colon adenocarcinoma cells; assay: Inhibition of proliferation of HT-29 cells (MTT assay); type: cell-based; settings: read-out: Inhibition activity against proliferation of HT-29 cells (GI50)
Description: HT-29 human colon adenocarcinoma cells were cultured in DMEM [10% FBS, 1% penicillin/streptomycin] at 37 °C in the presence of 5% CO2. The cultured HT-29 cells were harvested with 0.05% trypsin-0.02% EDTA and seeded in a 96-well plate at 5 x 10^3 cells per well.
3-(4,5-Dimethylthiazol-2-yl)-2,5-diphenyltetrazolium bromide (MTT) assay (CellTiter 96 Assay, Promega) was employed to measure cell viability. After adding 15 µL of a dye per well and culturing for 2 hours, the cells were treated with 100 µL of a stop solution and absorbance was measured 24 hours later. The test compound was treated a day after plating. The test compound had been sequentially diluted at 12 concentrations from a 10 mM stock solution using sterilized dimethylsulfoxide (DMSO) and treated with an amount of 0.5 µL. Absorbance at 590 nm was recorded using En Vision 2103, and GI50 value was calculated using GraphPad Prism 4.0 software.

tumor = settings: concurrent administration of TAE226 and docetaxel, animal model, P values < 0.01; cited from earlier work

SMILES	inhibition of tumor growth or tumor degeneration [1]	IC50 (FAK)	GI50 [2]	tumor reduction (tumor)
CN(c1ncccc1CNc1nc(Nc2ccc3c(c2)CC(=O)N3)ncc1C(F)(F)F)S(C)(=O)=O [PF-562271]	42-90%			
Cc1ccc(Nc2ncc3scc(-c4cccc(C(=O)NC5CC5)c4)c3n2)cn1 [Example 26, N-cyclopropyl-3-(2-(6-methylpyridin-3-ylamino)thieno[3,2-d]pyrimidin-7-yl)benzamide]		< 10000 nM		
CN(C)CCOc1ccc(Nc2ncc3scc(-c4cccc(NS(C)(=O)=O)c4)c3n2)cn1 [Example 13, N-(3-(2-(6-(2-(dimethylamino)ethoxy)pyridin-3-ylamino)thieno[3,2-d]pyrimidin-7-yl)phenyl)methanesulfonamide]		< 500 nM	< 1000 nM	
CCN1CCN(c2ccc(Nc3ncc4scc(-c5cnc6ccccc6c5)c4n3)cn2)CC1 [Example 30, N-(6-(4-ethylpiperazin-1-yl)pyridin-3-yl)-7-(quinolin-3-yl)thieno[3,2-d]pyrimidin-2-amine]		< 500 nM	< 1000 nM	
CNC(=O)c1ccccc1Nc1nc(Nc2ccc(N3CCOCC3)cc2OC)ncc1Cl [TAE226]				85-97%
CCN1CCN(c2ccc(Nc3ncc4scc(-c5cccc(NS(C)(=O)=O)c5)c4n3)cn2)CC1 [Example 1, N-(3-(2-(6-(4-ethylpiperazin-1-yl)pyridin-3-ylamino)thieno[3,2-d]pyrimidin-7-yl)phenyl)methanesulfonamide]		< 500 nM	< 1000 nM	
Cc1ccc(Nc2ncc3scc(-c4cccc(NS(C)(=O)=O)c4)c3n2)cn1 [Example 11, N-(3-(2-(6-methylpyridin-3-ylamino)thieno[3,2-d]pyrimidin-7-yl)phenyl)methanesulfonamide]		< 1000 nM	< 1000 nM	
CCN1CCN(c2ccc(Nc3ncc4scc(-c5cccc(C(=O)NC6CC6)c5)c4n3)cn2)CC1 [Example 25, N-cyclopropyl-3-(2-(6-(4-ethylpiperazin-1-yl)pyridin-3-ylamino)thieno[3,2-d]pyrimidin-7-yl)benzamide]		< 500 nM	< 1000 nM	
CS(=O)(=O)Nc1cccc(-c2csc3cnc(Nc4ccc(N5CCOCC5)nc4)nc23)c1 [Example 12, N-(3-(2-(6-morpholinopyridin-3-ylamino)thieno[3,2-d]pyrimidin-7-yl)phenyl)methanesulfonamide]		< 1000 nM	< 1000 nM	
O=C(NC1CC1)c1cccc(-c2csc3cnc(Nc4ccc(N5CCOCC5)nc4)nc23)c1 [Example 27, N-cyclopropyl-3-(2-(6-morpholinopyridin-3-ylamino)thieno[3,2-d]pyrimidin-7-yl)benzamide]		< 500 nM	< 1000 nM	
